Results as given in patent US20110136880A1, “Latrunculin-Based Macrolides and Their Uses” (priority 2009, published 2011).
Where two headings read alike, the source gives them in different places.

Legend:
pyrene-conjugated actin = molecular target: T1, pyrene-conjugated actin (Oryctolagus cuniculus, UniProt P68135); experiment: Pyrene actin polymerization assay; assay type: biochemical; details: for inhibition at 0.1 µM: read-out: Actin polymerization inhibition (%) 100 nM; for inhibition at 1 µM: read-out: Actin polymerization inhibition (%) 1 μM; for IC50: mean ± SEM, triplicate
T1 construct: purchased Cytoskeleton, Denver, Colo
Method: An actin polymerization kit was used to assess the direct actin-binding activity of each analogue at two concentrations: 100 nM and 1 μM. This kit is based on the enhanced fluorescence of pyrene-conjugated actin that occurs during polymerization. When pyrene-G-actin (monomer) forms pyrene-F-actin, fluorescence is enhanced. The enhanced fluorescence is used to follow polymerization over time. Table 2 lists activities as the percentage of actin polymerization inhibition, compared to the negative vehicle control (DMSO), along with calculated IC50.
Pyrene-Actin Polymerization Assays. Actin polymerization assays were performed in accordance with the manufacturer's instructions (Cytoskeleton, Denver, Colo.). Briefly, […] final concentration of monomeric actin (1:10 pyrene labeled) was incubated on ice for 10 min with one of various concentrations of one of the latrunculin derivatives. Samples were then equilibrated 10 min in an ELISA plate reader (BioTek, VT), after which polymerization was induced by adding KCl, MgCl2, and ATP. Compounds 1-14 were tested at 0.1, 0.5, 1.0, and 10 μM. The IC50 for each compound was calculated using GraphPad Prism 5.0.
Pyrene-actin polymerization assays. Actin polymerization inhibitory activity is assessed using the Cytoskeleton Actin Polymerization kit (Cytoskeleton, Denver, Colo.). Briefly, […] (final concentration) of monomeric actin (1:10 pyrene labeled) is incubated on ice for 10 min with one of various concentrations of the test latrunculin compound. Samples are equilibrated 10 min in an ELISA plate reader (BioTek, VT), after which polymerization is induced by adding KCl, MgCl2, and ATP. Compounds are tested at 0.1, 0.5, 1.0, and 10 μM. The IC50 for each compound is calculated using GraphPad Prism 5.0.

MCF7 = experiment: MTT proliferation assay, MCF7; assay type: cell-based, human; details: Homo sapiens, read-out: IC50 (μM) MCF7
Description: (§1) The antiproliferative and anti-invasive activities of compounds 1-14 were quantified using MTT and cell invasion assay kits, respectively. Latrunculin A (compound 1) was used as a positive control in all biological assays, because it is known to be an actin polymerization inhibitor, with cytotoxic, antiproliferative, and anti-invasive activities. The 3-[4,5-dimethylthiazol-2-yl]-2,5-diphenyl tetrazolium bromide (MTT) assay selectively detects living cells in a quantitative, colorimetric fashion, based on a living cell's ability to reduce MTT to an insoluble, purple formazan dye. The MTT assay is routinely used to assess cytotoxicity and proliferation inhibition activities. The antiproliferative activities of compounds 1-14 were measured against two human mammary gland adenocarcinoma cell lines, MCF7 and MDA-MB-231, and against human prostate cancer cells PC-3 at five different doses (0.1, 0.5, 1, 10, and 50 μM). While many of the semisynthetic latrunculins had similar activity levels, some had greater activity than compound 1. […] Although the MDA-MB-231 cells were more resistant than MCF7 against most latrunculin derivatives tested, compound 14 had potent activity against both cell lines.
(§2) MTT Proliferation Assay. The growth of MCF7, MDA-MB-231, and PC-3 cancer cell lines was measured using an MTT kit (TACS™, TREVIGEN®, Inc.). Exponentially growing cells were plated in a 96-well plate at a density of 8×10^3 cells per well, and allowed to attach for 24 h. Complete growth medium was then replaced with 100 μL of RPMI serum-free medium containing various concentrations (50, 10, 1, 0.5, 0.1 μM) of the particular test compound. Culture continued at 37° C. under 5% CO2. After 72 h of culture, the cells were treated with MTT solution (10 μL/well) at 37° C. for 4 h. The color reaction was stopped by adding solubilization/stop solution (100 μL/well). Incubation continued at 37° C. continued to completely dissolve the formazan dye product. Absorbance of the samples was determined at 570 nm with an ELISA plate reader (BioTek, VT). The number of cells per well was calculated against a standard curve that had been prepared by plating various concentrations of cells, as determined by hemocytometer, at the start of each experiment. IC50 for each compound was calculated using a nonlinear regression curve fit of log concentration versus the number of cells/well, using GraphPad Prism 5.0 (GraphPad Software, La Jolla, Calif.).

PC-3 = experiment: MTT proliferation assay, PC-3; assay type: cell-based, human; details: Homo sapiens, read-out: IC50 (μM) PC-3
Description: as §1, §2

MDA-MB-231 = experiment: MTT proliferation assay, MDA-MB-231; assay type: cell-based, human; details: Homo sapiens, read-out: IC50 (μM) MDA-MB-231
Description: as §1, §2

[1] = 100 nM, compared to vehicle control (DMSO)
[2] = 1 μM, compared to vehicle control (DMSO)
[3] = MDA-MB-231, MTT, 72 h, mean ± SEM

SMILES	inhibition at 0.1 µM (pyrene-conjugated actin; [1]) [%]	inhibition at 1 µM (pyrene-conjugated actin; [2]) [%]	IC50 (pyrene-conjugated actin) [nM]	IC50 (MCF7; MCF7, MTT, 72 h, mean ± SEM) [µM]	IC50 (PC-3; PC-3, MTT, 72 h) [µM]	IC50 (MDA-MB-231; [3]) [µM]	inhibition at 0.1 µM (pyrene-conjugated actin) [%]	inhibition at 1 µM (pyrene-conjugated actin) [%]	IC50 (MCF7; MCF7, 72 h) [µM]	IC50 (PC-3; PC-3, 72 h) [µM]	IC50 (MDA-MB-231; MDA-MB-231, 72 h) [µM]
CO[C@]1([C@@H]2CSC(=O)N2C)C[C@H]2C[C@@H](CC[C@H](C)/C=C\C=C\CC/C(C)=C\C(=O)O2)O1 [Compound 5, 17-O-Methyl-N-methyllatrunculin A]	11	19	> 10000	13.1 ± 3.69	19.4	19.9 ± 3.27					
CO[C@]1([C@@H]2CSC(=O)N2CCCO)C[C@H]2C[C@@H](CC[C@H](C)/C=C\C=C\CC/C(C)=C\C(=O)O2)O1 [Compound 8, 17-O-Methyl-N-(3′-hydroxypropyl)latrunculin A]	0	21	8550 ± 574	19.2 ± 3.91	34.2	> 50					
CO[C@]1([C@@H]2CSC(=O)N2Cc2ccccc2)C[C@H]2C[C@@H](CC[C@H](C)/C=C\C=C\CC/C(C)=C\C(=O)O2)O1 [Compound 9, 17-O-Methyl-N-benzyllatrunculin A]	33	67	333 ± 76	0.78 ± 0.24	8.3	6.82 ± 1.41					
CO[C@]1([C@@H]2CSC(=O)N2)C[C@H]2C[C@@H](CC[C@H](C)/C=C\C=C\CC/C(C)=C\C(=O)O2)O1 [Compound 2, 17-O-Methyllatrunculin A]	6	21	9230 ± 825	10.2 ± 1.72	22.3	23.4 ± 0.85					
CCN1C(=O)SC[C@H]1[C@@]1(OC)C[C@H]2C[C@@H](CC[C@H](C)/C=C\C=C\CC/C(C)=C\C(=O)O2)O1 [Compound 6, 17-O-Methyl-N-ethyllatrunculin A]	0	18	> 10000	20.6 ± 2.77	29.3	> 50					
CO[C@]1([C@@H]2CSC(=O)N2C2CCCC2)C[C@H]2C[C@@H](CC[C@H](C)/C=C\C=C\CC/C(C)=C\C(=O)O2)O1 [Compound 7, 17-O-Methyl-N-cyclopentanelatrunculin A]	20	49	1050 ± 271	5.3 ± 1.32	7.24	5.07 ± 0.72					
CO[C@]1([C@@H]2CSC(=O)N2C(=O)c2ccccc2)C[C@H]2C[C@@H](CC[C@H](C)/C=C\C=C\CC/C(C)=C\C(=O)O2)O1 [Compound 10, 17-O-Methyl-N-benzoyllatrunculin A]	17	53	834 ± 109	0.55 ± 0.091	4.7	4.48 ± 1.79					
C/C1=C/C(=O)O[C@@H]2C[C@@H](CC[C@H](C)/C=C\C=C\CC1)O[C@@](O)([C@@H]1CSC(=O)N1)C2 [Compound 1, Latrunculin A, reference compound]			284 ± 72				30	73	0.48 ± 0.04	3.9	4.19 ± 1.49
